Results reported in patent US6586413B2, “Methods and compositions for reducing ischemic injury of the heart by administering adenosine receptor agonists and antagonists” (The United States of America as represented by the …, priority 1999, dated 2003).
One block for each compound: values may come before it.

Assays:
diacylglycerol level = assay: Diacylglycerol (DAG) accumulation in [3H]myristate-labeled ventricular myocytes; assay type: cell-based, chick; conditions: 1 μM 8-butylaminoCPA or 10 nM MRS1760 for 5 min
Description: FIGS. 15A and 15B show the coupling of the partial A1 and A3 receptor agonists to stimulation of DAG accumulation and the differential inhibitory effects of the phospholipase C inhibitor U-73122 on the cardioprotection caused by 8-butylaminoCPA or by MRS1760, respectively. FIG. 15A: Ventricular myocytes were labeled with [^3H]myristate (Dupont, 49 Ci/mmol, […]) for 24 hours, exposed to 1 μM of 8-butylaminoCPA or 10 nM MRS1760 for 5 min, and the amount of DAG was determined by thin-layer chromatography. Data are expressed as the percentage increase in the amount of DAG relative to that for unstimulated cells, and are means±SE of values from five independent experiments. FIG. 15B: Effects of U-73122 on cardioprotection induced by 8-butylaminoCPA or by MRS1760 were determined. U-73122 (10 μM) was either included or not during the 5 min exposure of ventricular myocytes to 1 μM 8-butylaminoCPA or 10 nM MRS1760, and cardiac injury was assessed after ischemia as described herein below. […]
Quantitation of diacylglycerol (DAG) and measurement of phospholipase D (PLD) activity were carried out as previously described (35, 36). The formation of [^3H] phosphotidylethanol (PEt) during agonist exposure in media containing 0.5% (v/v) ethanol was determined by scintillation counting following its separation from other phospholipids on thin layer chromatography as described (36). […]

phospholipase D = assay: Phospholipase D activity ([3H]phosphatidylethanol formation); assay type: cell-based, chick
Description: Quantitation of diacylglycerol (DAG) and measurement of phospholipase D (PLD) activity were carried out as previously described (35, 36). The formation of [^3H] phosphotidylethanol (PEt) during agonist exposure in media containing 0.5% (v/v) ethanol was determined by scintillation counting following its separation from other phospholipids on thin layer chromatography as described (36). The level of [^3H] PEt represents an index of the PLD activity. The position of DAG or PEt was determined by immersing the thin layer plate in an iodine chamber and their levels were expressed as a percentage of total lipids. Data were expressed as the percentage increase in the amount of DAG or PEt relative to that for unstimulated cells.

[1] = test system: ventricular myocytes cultured from chick embryos; assay: Pharmacological preconditioning: 5 min exposure to agent, then 90 min simulated ischemia; assay type: cell-based; conditions: for preconditioning / cardioprotective effect: agent alone, 5 min exposure before 90 min ischemia; for maximal protection compared with full agonist: partial agonist vs full agonist (CCPA or Cl-IB-MECA); for effect of high concentration of partial agonist on protection by full agonist: with full agonist CCPA or Cl-IB-MECA
Description: FIG. 14 is a graph showing that the partial A1 receptor agonist, 8-butylaminoCPA, mimics the cardioprotective effect of ischemic preconditioning. Ventricular myocytes were cultured from chick embryos 14 days in ovo. The ability of the partial A1 agonist, 8-butylaminoCPA (8-butylamino-N^6-cyclopentyladenosine), to induce preconditioning was determined. In brief, myocytes were exposed to 8-butylaminoCPA at the indicated concentrations for 5 min, incubated for 10 min with agonist-free medium, and then exposed to simulated ischemia for 90 min. The extent of myocyte injury was quantitated at the end of the 90 min period by determinating the percentage of cells killed and the amount of creatine kinase (CK) released (units per milligram of cell protein). Data are means±SE of values from five independent experiments.
Determination of myocyte injury was made at the end of the ninety-minute hypoxia, at which time myocytes were taken out of the hypoxic incubator and re-exposed to room air (normal % O2). Aliquots of the media were then obtained for creatine kinase (CK) activity measurement, which is followed by quantitation of the number of viable cells. Measurement of basal level of cell injury was made after parallel incubation of control cells under normal % O2. The extent of hypoxia-induced injury to the ventricular cell was quantitatively determined by the percentages of cells killed and by the amount of CK released into the media according to a previously described method (16, 23). […] In brief, the media were replaced with a trypsin-EDTA buffer to detach the cells, which was then followed by sedimentation of the viable myocytes. Parallel changes in % cells killed and CK released (16, 23) further validated this assay for % cells killed. The amount of CK was measured as enzyme activity (unit/mg), and increases in CK activity above the control level were determined. The percentage of cells killed was calculated as the number of cells obtained from the control group (representing cells not subjected to any hypoxia or drug treatment) minus the number of cells from the treatment group divided by number of cells in control group multiplied by 100%.
Media were then replaced with fresh media, which was then followed by exposure to 90-minute simulated ischemia and the data graphed.

phospholipase C = assay: Phospholipase C activity in cardiac myocytes; assay type: cell-based, chick
Description: To further test this notion, the ability of 8-butylaminoCPA to stimulate phospholipase C as measured by […] formation, a downstream signaling molecule that mediates the cardioprotective effect of adenosine A1 receptor was determined.

PLD activity (phospholipase D): able to stimulate PLD activity
Structure (SMILES): OC[C@@]12C[C@@H]1[C@@H](n1cnc3c(NCc4cccc(I)c4)nc(Cl)nc31)[C@H](O)[C@@H]2O [MRS1760, (1′R,2′R,3′S,4′R,5′S)-4-{2-Chloro-6-[(3-iodophenylmethyl)amino]purin-9-yl}-1-(hydroxymethyl)bicyclo[3.1.0]-hexane-2,3-diol]
diacylglycerol level (diacylglycerol level): an increase in the diacylglycerol level | preconditioning / cardioprotective effect [1]: able to induce a marked protective effect against ischemia | maximal protection compared with full agonist [1]: less than the maximal effect caused by Cl-IB-MECA | effect of high concentration of partial agonist on protection by full agonist [1]: blocked the protection induced by the full agonist Cl-IB-MECA

Structure (SMILES): CCCCNc1nc2c(NC3CCCC3)ncnc2n1[C@@H]1O[C@H](CO)[C@@H](O)[C@H]1O [8-butylaminoCPA, 8-butylamino-N^6-cyclopentyladenosine]
diacylglycerol level (diacylglycerol level): an increase in the diacylglycerol level | PLC activity (phospholipase C): able to stimulate PLC activity | preconditioning / cardioprotective effect [1]: able to induce a marked cardioprotective effect | maximal protection compared with full agonist [1]: less than that produced by the full agonist CCPA | effect of high concentration of partial agonist on protection by full agonist [1]: able to antagonize the protection caused by the full agonist CCPA
